system: MGC-803; test: Antiproliferative activity against human MGC803 cells after 72 hrs by MTT assay; assay type: functional, cell-based; conditions: MGC-803, 72 h

Row | Structure (SMILES) | IC50
1 | CCCSc1nc(Cl)c2c(n1)N(Cc1ccccc1)C(C(=O)OCC)N2 (stereo not given) | 18.5 µM
2 | CCCSc1nc(Cl)c2c(n1)N(Cc1ccco1)C(C(=O)N1CCN(C)CC1)N2 (stereo not given) | 53.8 µM
3 | CCCSc1nc(Cl)c2c(n1)N(Cc1ccccc1)C(C(=O)O)N2 (stereo not given) | > 64 µM
4 | CCCSc1nc(Cl)c2c(n1)N(Cc1ccccc1)C(C(=O)N1CCN(C(=O)OC(C)(C)C)CC1)N2 (stereo not given) | 32 µM
5 | CCCSc1nc(Cl)c2c(n1)N(CC1CCCCC1)C(C(=O)N1CCN(C)CC1)N2 (stereo not given) | > 64 µM
6 | CCCSc1nc(Cl)c2c(n1)N(Cc1ccccc1)C(C(=O)NCCCc1ccccc1)N2 (stereo not given) | 16.9 µM
7 | CCCSc1nc(Cl)c2c(n1)N(CCOC)C(C(=O)N1CCN(C)CC1)N2 (stereo not given) | > 64 µM
8 | CCCSc1nc(Cl)c2c(n1)N(Cc1ccccc1)C(C(=O)N1CCOCC1)N2 (stereo not given) | 30.2 µM
9 | CCCSc1nc(Cl)c2c(n1)N(Cc1ccccc1)C(C(=O)NCC(C)C)N2 (stereo not given) | 58.4 µM
10 | CCCSc1nc(Cl)c2c(n1)N(Cc1cccs1)C(C(=O)N1CCN(C)CC1)N2 (stereo not given) | 62.3 µM

system: TE-1; test: Antiproliferative activity against human TE1 cells after 72 hrs by MTT assay; assay type: functional, cell-based; conditions: TE-1, 72 h

Row | Structure (SMILES) | IC50
11 | CCCSc1nc(Cl)c2c(n1)N(Cc1ccccc1)C(C(=O)OCC)N2 (stereo not given) | > 64 µM
12 | CCCSc1nc(Cl)c2c(n1)N(Cc1ccco1)C(C(=O)N1CCN(C)CC1)N2 (stereo not given) | 35 µM
13 | CCCSc1nc(Cl)c2c(n1)N(Cc1ccccc1)C(C(=O)O)N2 (stereo not given) | > 64 µM
14 | CCCSc1nc(Cl)c2c(n1)N(Cc1ccccc1)C(C(=O)N1CCN(C(=O)OC(C)(C)C)CC1)N2 (stereo not given) | 31.2 µM
15 | CCCSc1nc(Cl)c2c(n1)N(CC1CCCCC1)C(C(=O)N1CCN(C)CC1)N2 (stereo not given) | > 64 µM
16 | CCCSc1nc(Cl)c2c(n1)N(Cc1ccccc1)C(C(=O)NCCCc1ccccc1)N2 (stereo not given) | 22.9 µM
17 | CCCSc1nc(Cl)c2c(n1)N(CCOC)C(C(=O)N1CCN(C)CC1)N2 (stereo not given) | > 64 µM
18 | CCCSc1nc(Cl)c2c(n1)N(Cc1ccccc1)C(C(=O)N1CCOCC1)N2 (stereo not given) | 43.7 µM
19 | CCCSc1nc(Cl)c2c(n1)N(Cc1ccccc1)C(C(=O)NCC(C)C)N2 (stereo not given) | 46.6 µM
20 | CCCSc1nc(Cl)c2c(n1)N(Cc1cccs1)C(C(=O)N1CCN(C)CC1)N2 (stereo not given) | 39.4 µM

system: PC-3; test: Antiproliferative activity against human PC3 cells after 72 hrs by MTT assay; assay type: functional, cell-based; conditions: PC-3, 72 h

Row | Structure (SMILES) | IC50
21 | CCCSc1nc(Cl)c2c(n1)N(Cc1ccccc1)C(C(=O)OCC)N2 (stereo not given) | 62.5 µM
22 | CCCSc1nc(Cl)c2c(n1)N(Cc1ccco1)C(C(=O)N1CCN(C)CC1)N2 (stereo not given) | 11.3 µM
23 | CCCSc1nc(Cl)c2c(n1)N(Cc1ccccc1)C(C(=O)O)N2 (stereo not given) | 49.2 µM
24 | CCCSc1nc(Cl)c2c(n1)N(Cc1ccccc1)C(C(=O)N1CCN(C(=O)OC(C)(C)C)CC1)N2 (stereo not given) | 47.1 µM
25 | CCCSc1nc(Cl)c2c(n1)N(CC1CCCCC1)C(C(=O)N1CCN(C)CC1)N2 (stereo not given) | 12.8 µM
26 | CCCSc1nc(Cl)c2c(n1)N(Cc1ccccc1)C(C(=O)NCCCc1ccccc1)N2 (stereo not given) | 12.7 µM
27 | CCCSc1nc(Cl)c2c(n1)N(CCOC)C(C(=O)N1CCN(C)CC1)N2 (stereo not given) | 62.7 µM
28 | CCCSc1nc(Cl)c2c(n1)N(Cc1ccccc1)C(C(=O)N1CCOCC1)N2 (stereo not given) | 53.9 µM
29 | CCCSc1nc(Cl)c2c(n1)N(Cc1ccccc1)C(C(=O)NCC(C)C)N2 (stereo not given) | > 64 µM
30 | CCCSc1nc(Cl)c2c(n1)N(Cc1cccs1)C(C(=O)N1CCN(C)CC1)N2 (stereo not given) | 5.02 µM

system: A549; test: Antiproliferative activity against human A549 cells after 72 hrs by MTT assay; assay type: functional, cell-based; conditions: A549, 72 h

Row | Structure (SMILES) | IC50
31 | CCCSc1nc(Cl)c2c(n1)N(Cc1ccccc1)C(C(=O)OCC)N2 (stereo not given) | 13.8 µM
32 | CCCSc1nc(Cl)c2c(n1)N(Cc1ccco1)C(C(=O)N1CCN(C)CC1)N2 (stereo not given) | 13.6 µM
33 | CCCSc1nc(Cl)c2c(n1)N(Cc1ccccc1)C(C(=O)O)N2 (stereo not given) | 10.7 µM
34 | CCCSc1nc(Cl)c2c(n1)N(Cc1ccccc1)C(C(=O)N1CCN(C(=O)OC(C)(C)C)CC1)N2 (stereo not given) | 29 µM
35 | CCCSc1nc(Cl)c2c(n1)N(CC1CCCCC1)C(C(=O)N1CCN(C)CC1)N2 (stereo not given) | 13.2 µM
36 | CCCSc1nc(Cl)c2c(n1)N(Cc1ccccc1)C(C(=O)NCCCc1ccccc1)N2 (stereo not given) | 9.43 µM
37 | CCCSc1nc(Cl)c2c(n1)N(CCOC)C(C(=O)N1CCN(C)CC1)N2 (stereo not given) | 61.8 µM
38 | CCCSc1nc(Cl)c2c(n1)N(Cc1ccccc1)C(C(=O)N1CCOCC1)N2 (stereo not given) | > 64 µM
39 | CCCSc1nc(Cl)c2c(n1)N(Cc1ccccc1)C(C(=O)NCC(C)C)N2 (stereo not given) | 48.2 µM
40 | CCCSc1nc(Cl)c2c(n1)N(Cc1cccs1)C(C(=O)N1CCN(C)CC1)N2 (stereo not given) | 6.42 µM

Reference: ChEMBL document CHEMBL4152199, “Discovery of 6-chloro-2-(propylthio)-8,9-dihydro-7H-purines containing a carboxamide moiety as potential selective anti-lung cancer agents” (Eur J Med Chem, 2018)
